Measurements: patent US10407388B2, “Thiourea derivatives as activators of RORα and pharmaceutical composition containing same” (SEOUL NATIONAL UNIVERSITY R & DB FOUNDATION, priority 2011, dated 2019)

Tests used:
[1] = tested on: A7r5; experiment: Proliferation of vascular smooth muscle cells, MTT; format: cell-based, rat; conditions: 100 μM for 2 days, 4 days, or 6 days, FIG. 14
Method: A7r5, which is a rat smooth muscle cell line, was purchased from ATCC. A7r5 was cultured in 5% CO2 using a DMEM supplemented with 10% FBS, penicillin (100 U/ml), and streptomycin (100 μg/ml) prior to use in an experiment. A7r5 cells (2×10^3 cells/well) were seeded on a 96-well culture plate and cultured overnight. After culturing, the A7r5 cells were treated with each of the JC1-40 and JC1-42 compounds at a concentration of 100 μM for 2 days, 4 days, or 6 days. Subsequently, the A7r5 cells were treated with MTT (3-4,5-dimethylthiazol-2-yl)-2,5-diphenyl-tetrazolium bromide) (2 mg/ml, 50 μl) for 4 hours, and then the medium was removed and 200 μl of DMSO was added to the plate. The contents in the plate were mixed for 5 minutes, and then absorbance was measured at 595 nm. Data was attained as the mean and SD for the three independent experimental results, and the results thereof are illustrated in FIG. 14.

[2] = tested on: SREBP-1; experiment: Expression of SREBP-1 protein in liver of mice with high-fat diet-induced fatty liver, western blotting; format: in vivo; conditions: oral, 10 mg/kg/day or 30 mg/kg/day for 2 days; liver tissue; FIG. 11b
Method: (§1) 3 days after the diet was fed, the mice were fed the high-fat diet containing safflower oil while being orally administered JC1-40 and JC1-42, which had been diluted with 0.5% carboxymethyl cellulose, at a dose of 10 mg/kg/day or 30 mg/kg/day for 2 days. 5 days after the diet was fed, the mice were sacrificed to extract liver tissues therefrom, and the expression of proteins was analyzed by western blotting analysis. That is, after treatment, each liver tissue was homogenized in a lysis buffer containing 50 mM NaCl, 50 mM Tris pH 7.4, 5 mM EDTA, 1% NP-40, and a protease inhibitor, and then centrifuged to obtain a total cell lysate. 20 μg to 30 μg of proteins collected from the total cell lysate was subjected to 7% to 9% SDS-PAGE, and was transferred to a polyvinylidene difluoride membrane (Millipore, Bedford, Mass., USA). […] Immunoreactive proteins were detected with Amersham ECL western blotting detection reagents using an HRP-conjugated secondary antibody (Zymed Lab). Protein concentrations were quantified by BCA (Pierce) analysis, and the expression of α-tubulin was monitored as a control. […]

[3] = tested on: LXRα; experiment: Expression of LXRα protein in liver of mice with high-fat diet-induced fatty liver, western blotting; format: in vivo; conditions: oral, 10 mg/kg/day or 30 mg/kg/day for 2 days; liver tissue; FIG. 11b
Method: as §1

[4] = tested on: ACC; experiment: Phosphorylation of ACC in HepG2 cells, western blotting; format: cell-based, human; conditions: 100 μM, 24 hours; FIGS. 7a and 7b
Method: HepG2 cells (1×10^6 cells/well) were seeded on a 60-dish, and cultured overnight in a DMEM containing 10% FBS. The HepG2 cells were maintained at 37° C. in a humidification thermostat containing 5% CO2 and 95% air. After culturing, the HepG2 cells were treated with 100 μM JC1-38 and JC1-40 (or 100 μM JC1-38 and JC1-42), 2 mM metfornin, and 2 mM AICIR for 24 hours. After treatment, the expression of RORα and phosphorylated ACC (pACC) proteins was analyzed by western blotting, and the expression of α-tubulin was monitored as a control. The results thereof are illustrated in FIGS. 7a and 7b.

[5] = tested on: ACC; experiment: Phosphorylation of ACC in liver of mice with high-fat diet-induced fatty liver, western blotting; format: in vivo; conditions: oral, 10 mg/kg/day or 30 mg/kg/day for 2 days; liver tissue; FIG. 11b
Method: as §1

[6] = tested on: FAS; experiment: Expression of FAS protein in HepG2 cells, western blotting; format: cell-based, human; conditions: for expression of FAS, which had been increased by T17: 0, 1, 10, 50, 100 μM with 1 μM T17, 24 hours, FIGS. 6b and 6c; for expression of FAS protein: 100 μM, 24 hours, FIG. 6a
Method: HepG2 cells (1×10^6 cells/well) were seeded on a 60-dish and cultured overnight in a DMEM containing 10% FBS. The HepG2 cells were maintained at 37° C. in a humidification thermostat containing 5% CO2 and 95% air. After culturing, the HepG2 cells were treated with each of the JC1-38, JC1-40, and JC1-42 compounds at a concentration of 100 μM, and, as a positive control, the HepG2 cells were treated with 2 mM metformin, which is an AMPK activator, for 24 hours. After treatment, the expression of proteins was analyzed by western blotting analysis. That is, after treatment, the HepG2 cells were destroyed on ice in a lysis buffer containing 50 mM NaCl, 50 mM Tris pH 7.4, 5 mM EDTA, 1% NP-40, and a protease inhibitor for 30 minutes, and then centrifuged to obtain a total cell lysate. 20 μg to 30 μg of proteins collected from the total cell lysate was subjected to 7% to 9% sodium dodecyl sulfate-polyacrylamide gel electrophoresis (SDS-PAGE), and was transferred to a polyvinylidene difluoride membrane (Millipore, Bedford, Mass., USA). The resulting product was subjected to blocking with 5% or 10% (w/v) nonfat dry milk in PBS containing 0.1% Tween-20, and was reacted with antibodies specific to RORα (Affinity BioReagents), LXRα, SREBP-1, FAS (Santa Cruz Biotechnology), phospho-ACC (Cell signaling), and α-tubulin (Calbiochem). Immunoreactive proteins were detected with Amersham ECL western blotting detection reagents using a horseradish peroxidase (HRP)-conjugated secondary antibody (Zymed Lab). Protein concentrations were quantified by bicinchoninic acid (BCA) (Pierce) analysis, and the expression of α-tubulin was monitored as a control. The results thereof are illustrated in FIG. 6a.
In addition, HepG2 cells were cultured under the same conditions, and then the HepG2 cells were treated with particular concentrations (0 μM, 1 μM, 10 μM, 50 μM, and 100 μM) of JC1-40 (or JC1-42) and 1 μM T17 for 24 hours. After treatment, the expression of proteins was analyzed by western blotting analysis, and the expression of α-tubulin was monitored as a control. The results thereof are illustrated in FIGS. 6b and 6c.

[7] = tested on: mice with high-fat diet-induced fatty liver; experiment: Intrahepatic triglyceride, intrahepatic fat accumulation and body weight in mice with high-fat diet-induced fatty liver; format: in vivo; conditions: oral, 10 mg/kg/day or 30 mg/kg/day for 2 days; for amount of intrahepatic triglyceride, which had been increased by the high-fat diet: FIG. 12a; for intrahepatic fat accumulation (Oil Red O staining): FIG. 12b; for body weights of the mice, which had been increased by the high-fat diet: FIG. 12c
Method: 3 days after the diet was fed, the mice were fed the high-fat diet containing safflower oil while being orally administered JC1-40 and JC142, which had been diluted with 0.5% carboxymethyl cellulose, at a dose of 10 mg/kg/day or 30 mg/kg/day for 2 days. 5 days after the diet was fed, the mice were sacrificed to extract liver tissues therefrom, and the amounts of intrahepatic triglycerides were measured using an EnzyChrom™ triglyceride assay kit (BioAssay Systems).
In addition, Oil Red O staining, which enables the identification of intrahepatic fat accumulation, was performed on the extracted liver tissues of the mice.

CNC(=S)NCc1ccc(Oc2ccccc2)cc1 [Compound 42, 1-(4-phenoxy-benzyl)-3-methyl-thiourea]
proliferation of vascular smooth muscle cells [1]: decreased
expression of SREBP-1 protein, which had been increased by the high-fat diet [2]: decreased
expression of LXRα protein, which had been increased by the high-fat diet [3]: decreased
phosphorylation of ACC [4]: increased
phosphorylation of ACC [5]: increased
expression of FAS, which had been increased by T17 [6]: decreased in a manner dependent on the concentration
expression of FAS protein [6]: decreased
amount of intrahepatic triglyceride, which had been increased by the high-fat diet [7]: decreased
intrahepatic fat accumulation (Oil Red O staining) [7]: decreased
body weights of the mice, which had been increased by the high-fat diet [7]: decreased

CNC(=S)NCc1ccc(OCc2ccccc2)cc1 [Compound 40, 1-(4-benzyloxy-benzyl)-3-methyl-thiourea]
proliferation of vascular smooth muscle cells [1]: decreased
expression of SREBP-1 protein, which had been increased by the high-fat diet [2]: decreased
expression of LXRα protein, which had been increased by the high-fat diet [3]: decreased
phosphorylation of ACC [4]: increased
phosphorylation of ACC [5]: increased
expression of FAS, which had been increased by T17 [6]: decreased in a manner dependent on the concentration
expression of FAS protein [6]: decreased
amount of intrahepatic triglyceride, which had been increased by the high-fat diet [7]: decreased
intrahepatic fat accumulation (Oil Red O staining) [7]: decreased
body weights of the mice, which had been increased by the high-fat diet [7]: decreased
